Calls of active or inactive are those of the source. No cut-off for these calls is given here.

We go through six molecules from ChEMBL document CHEMBL3217460, “Interactions of polysulfanes with components of red blood cells” (Medchemcomm, 2011).

For series [1], the target named is T1, Hemoglobin HbA (Homo sapiens) (UniProt P69905+P68871). The series can be described thus: Binding affinity to human hemoglobin by CD spectroscopic analysis.
The target of series [2] is T1, Hemoglobin HbA (Homo sapiens). The series can be described thus: Binding affinity to human hemoglobin at 100 to 300 uM by UV-Vis spectrophotometric analysis.
The subject of series [3] is Erythrocyte. The series can be described thus: Hemolytic activity in human RBC assessed as phosphatidylserine exposure on outer leaflet of cell membrane at 50 uM after 20 mins by annexin V-FITC staining-based FACS analysis. It counts as functional. On the technique in general: A flow cytometer gives signals particle by particle.
Series [4] concerns Erythrocyte. Briefly: Hemolytic activity in human RBC assessed as oxidation of hemoglobin to methemoglobin after 30 mins by UV-Vis spectrophotometric analysis. The format is functional, cell-based.

T1 sequence (P68871 2-147 partner limits assumed): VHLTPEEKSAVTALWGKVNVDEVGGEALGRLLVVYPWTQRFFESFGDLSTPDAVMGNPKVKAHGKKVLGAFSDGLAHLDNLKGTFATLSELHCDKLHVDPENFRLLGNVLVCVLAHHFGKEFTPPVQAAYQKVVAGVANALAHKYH
T1 sequence (P69905 2-142 limits assumed): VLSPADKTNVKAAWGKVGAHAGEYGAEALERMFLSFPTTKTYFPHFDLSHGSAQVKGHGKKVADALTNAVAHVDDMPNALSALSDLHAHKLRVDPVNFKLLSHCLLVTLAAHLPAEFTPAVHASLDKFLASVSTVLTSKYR

Broadly, the logP is the decadic logarithm of the partition coefficient of the neutral form, usually between octanol and water. Read a low logP as lower lipophilicity. `C=CCCCCCCC=C` returned a logP at 1000 µM in “physchem” of 4.71.
Regarding `C=CCSSCC=C`, the result (in series [1]; in series [2]; in the series on Erythrocyte [3]) was Active. In addition, the logP at 1000 µM in the series “physchem” was 2.72.
Consider `C=CCSSSSCC=C`, for which the Activity entry in the series with Erythrocyte [4] is “Dose-dependent effect”. In addition, the outcome (in series [1]; in series [2]; in the series with Erythrocyte [3]) was Active.
Consider `C=CCS`, for which, in the series with Erythrocyte [3], the result was Active.
As for `C=CCSCC=C`, the outcome (in series [1]; in series [2]; in the series on Erythrocyte [3]) was Active.
In the case of `C=CCSSSCC=C`, the Activity result with Erythrocyte [4] is “Dose-dependent effect”. The result (in series [1]; in series [2]; in the series with Erythrocyte [3]) was Active.
